Experimental findings from PubChem BioAssay (NCI) are described below.

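Grown in 96-well plates, cells were treated for 48 hours with each compound at five concentrations. Insufficient inhibition: endpoint recorded as highest concentration tested. At the TGI there is no net growth.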

Test systems include CAKI-1 renal; 786-0 renal; SW-620 colon; HCT-116 colon; UACC-257 melanoma; PC-3 prostate; NCI-H226 lung; NCI-H460 lung; SR leukemia; MALME-3M melanoma; U251 CNS; DU-145 prostate.
Common to all, as to test: inhibition of tumour cell growth, NCI panel, 48 h

Consider `CCOC(=O)/C=C(\C(=O)OCC)n1cnc2c(N)ncnc21`, for which the TGI with CAKI-1 renal stood at 2.86 µM; with 786-0 renal, 10.2 µM; with SW-620 colon it was 8.49 µM; in the assay on HCT-116 colon it was 12.3 µM; with UACC-257 melanoma it was 27.8 µM; in the assay with PC-3 prostate, 26.1 µM. In addition, the TGI with NCI-H226 lung amounted to 13 µM; in the assay with NCI-H460 lung it was 38.7 µM; in the assay on SR leukemia it was 4.25 µM; in the assay with MALME-3M melanoma, 15.8 µM; in the assay on U251 CNS it was 20.8 µM; with DU-145 prostate it was 29.1 µM.

For `CN(C)CCCNC(=O)c1cc(NC(=O)c2cc(NC(=O)[C@H]3C[C@@H]3C(=O)Nc3cc(C(=O)Nc4cc(C(=O)NCCCN(C)C)n(C)c4)n(C)c3)cn2C)cn1C`, the TGI in the assay with CAKI-1 renal, in the assay on 786-0 renal, in the assay on SW-620 colon, in the assay on HCT-116 colon, in the assay on UACC-257 melanoma and with PC-3 prostate was greater than 100 µM each time. In addition, the TGI with NCI-H226 lung, in the assay on NCI-H460 lung, in the assay with SR leukemia, in the assay with MALME-3M melanoma, in the assay with U251 CNS and with DU-145 prostate was greater than 100 µM in each case.

Turning to `Cc1cc(C)nc(NS(=O)(=O)c2ccc(NNC(=O)c3cccc4c(NNc5ccc(S(=O)(=O)Nc6nc(C)cc(C)n6)cc5)c5ccccc5nc34)cc2)n1`, the TGI was 41.8 µM in the assay with CAKI-1 renal; 54.1 µM in the assay with 786-0 renal; 48.3 µM with SW-620 colon; 48.2 µM in the assay with HCT-116 colon; 71.3 µM in the assay with UACC-257 melanoma; 51 µM in the assay with PC-3 prostate. The TGI in the assay on NCI-H226 lung came to 55.9 µM; in the assay with NCI-H460 lung it was 51.1 µM; in the assay on SR leukemia, 53.1 µM; with MALME-3M melanoma it was 51.8 µM; with U251 CNS it was 46.6 µM; in the assay with DU-145 prostate it was 36.8 µM.
